Patent US10806121B2, “Animal litter containing a pheromone composition” (Sergeant's Pet Care Products, LLC, priority 2014, dated 2020)

Legend:
cats [1] = assay: Study 3: 24-hour behavior of the most aggressive intact male cat pairs, CON litter versus RP litter; format: in vivo
Experimental: During the studies, cat behavior was captured on video for the duration of the 24- or 48-hour period depending on the specific study. Red lights were used at night to allow for continuous observation. A scan sampling method was used to record cat behaviors each 5 minutes. The recorded videos were subsequently reviewed and analyzed in each 5-minute scan sample, with tape playing 30 frames per second. At each 5-minute time point, each cat was categorized as anxious or relaxed. Aggression or litter box usage occurred between 5-minute periods were also noted. Because each scan sample is of 5-minute period, a total of 24 observations for each individual behavior are possible for each 2 hours. The instances of an individual behavior (An; n=1, 2, 3, . . . 24) in each 5-minute period were totaled for instances in each 2 hours (Bm=ΣAn, n=1, 2, 3, . . . 24; m=1, 2, 3, . . . 12) over 24 hours. The behavioral score for each 2-hour period is ΣAn/24 (n=1, 2, 3, . . . , 24). A behavioral score for a 24-hour period is ΣBm/12 (m=1, 2, 3, . . . 12). Among all behavior assessed, aggression, in-litter-box and anxiety were scored as yes or no during each 5 minutes (An=1 or 0; n=1, 2, 3, . . . 24). In addition, anxiety was measured as a percentage of the total time that the cat was experiencing anxiety. As such the anxiety related behavioral score for a 24-hour period is 0.347×ΣBm (%) (Bm=ΣAn(%), n=1, 2, 3, . . . 24; m=1, 2, 3, . . . 12), which reflects the percentage of time over 24 hours that the cats are experiencing anxiety. Moreover, when ranking cat pairs based on their level of aggression, the sum of the aggression scores of the individual cats in the pair was used to rank the cat pairs. Behavior data (behavioral scores) were further analyzed by Least Squares Analysis of variance using SAS (2011, SAS Inst., Inc., Cary, N.C.) software and the p-diff general linear model procedures to assess treatment differences within each time period. This statistical model included effects of treatment (TRT), cat-pair within treatment (TRT*CAT), time (HR), treatment by time (TRT*HR) and residual error (SE; used to test remaining effects). The most aggressive eight pairs of intact male cats from study 2 (Table, the pairs ranked 1 and 2-9) were selected for this 24-hour study, which was designed to assess if and how 2-methylbut-2-enal containing cat litter affects the multiple cats placed in one single room. Between studies 2 and 3, cat pairs had been separated for at least 12 weeks. Control (CON) litter and rabbit pheromone (RP) litter were similarly prepared as illustrated in Study 2. Each pair of cats was placed in a kennel containing one food dish, one water dish, and one litter box. Food and water was available ad libitum during the study. […] Side fences were chain linked. A total of 4 kennels were placed in one single room, and two rooms were utilized for eight pairs of cats. Cat behaviors were captured on video for the duration of the 24-hour period. Red lights were used at night to allow for continuous observation. The study schedule was as follows: • (1) 0 hour—Add 3 lb. aliquot of CON litter to a clean litter box and weigh the litter box; place a CON litter box in each of the 4 kennels in Room One. Before placing a designated cat pair in each of the kennels, weigh the cats. Start the video taping. • (2) 0 hour—Add 3 lb. aliquot of RP litter to a clean litter box and weigh; place RP litter boxes in 4 kennels in a separate Room Two; weigh cats; place designated pairs in kennels; and start the video taping. • (3) 24-hour—Remove and weigh all litter boxes; weigh all cats. Video records were obtained and reviewed for summary and analyses. At the 24-hour point of time, it was noted if any soiling had occurred outside of the litter box. Any social behavioral problems of the cats were also manually recorded, despite that video records provided a much more precise record of cat behaviors. Cat behavior of each pair was captured on video for the duration of the 24-hour period. […]

cats [2] = assay: Example 6: animal litter composition with molded particles for use with cats; format: in vivo; conditions: animal litter composition comprising about 0.0004% to about 0.0006% (w/w) 2-methylbut-2-enal; most evident in the first 6-8 hours
Excerpt: An animal litter composition comprising a pheromone composition can be prepared by first forming molded particles from a shaped polymeric matrix prepared in accordance with Example 4 or 5, wherein the molded particles comprise a pheromone composition comprising 2-methylbut-2-enal. The molded particles can then be combined with, mixed into, or otherwise incorporated into litter material upon use of the litter. An animal litter composition of about 2 lbs. to about 6 lbs. will comprise between about 0.01% and about 15% (w/w) molded particles (the molded particles comprising about 0.02% (w/w) 2-methylbut-2-enal) in order to be effective in alleviating litter dominant behavior and associated aggression and anxiety in cats exposed to the pheromone composition as released from the litter. For example, an animal litter comprising about 2% to about 3% molded particles will result in the litter comprising between about 0.0004% (w/w) and about 0.0006% (w/w) 2-methylbut-2-enal. Accordingly, it will be observed that an animal litter composition comprising about 0.0004% to about 0.0006% (w/w) 2-methylbut-2-enal will elicit a positive behavior modification in cats, which behavior modification can last at least 24 hours, and is most evident in the first 6-8 hours following exposure of the animal to the animal litter composition.

C/C=C(\C)C=O [RP, 2-methylbut-2-enal]
aggression away from litter box, % of the observations (cats [1]; 0-2 hour period, CON litter 25%, P<0.01): 5-6%
aggression near litter box, % of the observations (cats [1]; 0-2 hour period, CON litter more than 40%, P<0.01): 2-3%
aggression away from litter box, % of the observations (cats [1]; 2-4 hour period, CON litter 23-24%, P<0.01): 4%
lying/sitting - touching versus CON litter (cats [1]; 6-8 hour period, P=0.07): tendency to sit or lie in contact
anxiety versus CON litter (cats [1]; 8-10 hour period, P=0.06): tendency to be more anxious
litter box use versus CON litter (cats [1]; 8-10 hour period, P=0.10): tended to use the litter box more often
anxiety versus CON litter (cats [1]; 10-12 hour period, P<0.01): significantly more anxious
neutral social interaction versus CON litter (cats [1]; 10-12 hour period, P<0.01): significantly more neutral (non-aggressive) social interactions
litter box use versus CON litter (cats [1]; 12-14 hour period, P<0.01): Cats experiencing CON litter used the litter box significantly more
anxiety versus CON litter (cats [1]; 14-16 hour period, P=0.01): significantly more anxious
anxiety versus CON litter (cats [1]; 16-18 hour period, P=0.03): significantly more anxious
lying/sitting - touching versus CON litter (cats [1]; 16-18 hour period, P=0.05): tended to sit or lie in contact less
anxiety versus CON litter (cats [1]; 18-20 hour period, P=0.03): significantly more anxious
litter box use versus CON litter (cats [1]; 18-20 hour period, P=0.03): Cats experiencing CON litter used the litter box significantly more
lying/sitting - touching versus CON litter (cats [1]; 20-22 hour period, P=0.01): significantly higher
lying/sitting - touching versus CON litter (cats [1]; 22-24 hr period, P=0.04): tended to sit or lie in contact less
duration of aggression control (cats [1]; RP in the litter around 0.0004% to 0.0006% (w/w)): 6 to 8 h
Behavior score: Head in food/H2O dish (cats [1]; RP litter (3% (w/w) beads with 0.02% (w/w) 2-methylbut-2-enal), 24 hours, 4 cat pairs, CON 0.85, TRT P-Value 0.16): 0.57
Behavior score: Grooming other (cats [1]; RP litter, 24 hours, 4 cat pairs, CON 0.03, TRT P-Value 0.36): 0.00
Behavior score: Neutral social interaction (cats [1]; RP litter, 24 hours, 4 cat pairs, CON 0.10, TRT P-Value 0.82): 0.14
Behavior score: In litter box - using (cats [1]; RP litter, 24 hours, 4 cat pairs, CON 0.31, TRT P-Value 0.23): 0.20
Behavior score: Grooming self (cats [1]; RP litter, 24 hours, 4 cat pairs, CON 0.56, TRT P-Value 0.90): 0.52
Behavior score: Lying/sitting - touching (cats [1]; RP litter, 24 hours, 4 cat pairs, CON 0.73, TRT P-Value 0.92): 0.64
Behavior score: Play (cats [1]; RP litter, 24 hours, 4 cat pairs, CON 0.84, TRT P-Value 0.89): 0.92
Behavior score: Sleeping (cats [1]; RP litter, 24 hours, 4 cat pairs, CON 0.95, TRT P-Value 0.59): 0.63
Behavior score: In litter box - not using (cats [1]; RP litter, 24 hours, 4 cat pairs, CON 1.63, TRT P-Value 0.74): 2.34
Behavior score: Aggression (cats [1]; RP litter, 24 hours, 4 cat pairs, CON 3.55, TRT P-Value 0.37): 2.01
Behavior score: Locomotion (cats [1]; RP litter, 24 hours, 4 cat pairs, CON 5.50, TRT P-Value 0.52): 4.34
Behavior score: Lying/sitting - not touching (cats [1]; RP litter, 24 hours, 4 cat pairs, CON 14.98, TRT P-Value 0.79): 15.53
Behavior score: Anxiety (%) (cats [1]; RP litter, 24 hours, 4 cat pairs, CON 17.00, TRT P-Value 0.56): 25.00%
weight added to litter box (cats [1]; RP litter, CON cats 0.15 kg, SE=0.02 kg, change not significant, litter spilled): 0.07 kg/day
overall RP treatment effect on behaviors over the full 24 hours (cats [1]; RP versus CON litter, all behaviors of Table 10): None of the behaviors evaluated over the full 24 hours were significantly changed
anxiety versus CON litter (cats [1]; first 2 hour period, P=0.04): significantly less anxious
aggression patterns versus CON litter (cats [1]; first 6 hours after cats were placed together, P<0.01): significantly lower
duration of positive behavior modification in cats (cats [2]): at least 24 hours
